Measured values reported in PubChem BioAssay (NCI).
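Following 48 hours of exposure in 96-well plates, responses at five concentrations were used to interpolate endpoints linearly. TGI marks complete inhibition of growth.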

Key:
Assay in all cases: DTP human tumour cell line panel, 48 h
[1] = tested on: 786-0 renal
[2] = tested on: A498 renal
[3] = tested on: A549 NSCLC
[4] = tested on: ACHN renal
[5] = tested on: BT-549 breast
[6] = tested on: CAKI-1 renal
[7] = tested on: COLO 205 colon
[8] = tested on: DU-145 prostate
[9] = tested on: EKVX NSCLC
[10] = tested on: HCC-2998 colon
[11] = tested on: HCT-116 colon
[12] = tested on: HCT-15 colon
[13] = tested on: HOP-62 NSCLC
[14] = tested on: HOP-92 NSCLC
[15] = tested on: HS 578T breast
[16] = tested on: HT29 colon
[17] = tested on: IGROV1 ovarian
[18] = tested on: K-562 leukemia
[19] = tested on: KM12 colon
[20] = tested on: M14 melanoma
[21] = tested on: MALME-3M melanoma
[22] = tested on: MCF7 breast
[23] = tested on: MDA-MB-231 breast
[24] = tested on: MDA-MB-435
[25] = tested on: MDA-N
[26] = tested on: MOLT-4 leukemia
[27] = tested on: NCI-H23 lung
[28] = tested on: NCI-H460 lung
[29] = tested on: NCI-H522 lung
[30] = tested on: NCI/ADR-RES ovarian
[31] = tested on: OVCAR-3 ovarian
[32] = tested on: OVCAR-4 ovarian
[33] = tested on: OVCAR-5 ovarian
[34] = tested on: OVCAR-8 ovarian
[35] = tested on: PC-3 prostate
[36] = tested on: RPMI-8226 leukemia
[37] = tested on: RXF 393 renal
[38] = tested on: SF-268 CNS
[39] = tested on: SF-295 CNS
[40] = tested on: SK-MEL-2 melanoma
[41] = tested on: SK-MEL-28 melanoma
[42] = tested on: SK-MEL-5 melanoma
[43] = tested on: SK-OV-3 ovarian
[44] = tested on: SNB-19 CNS
[45] = tested on: SNB-75 CNS
[46] = tested on: SW-620 colon
[47] = tested on: TK-10 renal
[48] = tested on: U251 CNS
[49] = tested on: UACC-257 melanoma
[50] = tested on: UACC-62 melanoma
[51] = tested on: UO-31 renal
[52] = tested on: HL-60(TB) leukemia
[53] = tested on: SF-539 CNS
[54] = tested on: SN12C renal
[55] = tested on: SR leukemia

Measured: TGI

CCCCN1CCC(O)(c2cc(C(=O)O)[nH]c2-c2cc(C)no2)C1=O (stereo unspecified)
not listed: [52] | [53] | [54] | [55]
> 100 µM: all other assays above

O=C1CN(c2ccccc2)C(=O)CN1CCN1CC(=O)N(c2ccccc2)CC1=O
not listed: [18] | [23] | [26] | [30] | [40]
> 100 µM: all other assays above
